{
  "source": "patent US10342697B2",
  "about": "“Systems and methods for delivering drugs to an eye” (Avedro, Inc., priority 2016, dated 2019)",
  "key": {"epithelium": {"tested_on": "epithelium", "assay": "Corrosiveness/damage to the epithelium", "settings": "compared with BAC"}, "[1]": {"tested_on": "pig eyes with intact epithelium", "assay": "Relative fluorescence F/Fo of cross-linked corneal flaps, Polidocanol vs BAC riboflavin solutions (Study 4)", "settings": "20 min soak, 30 mW/cm^2, FIGS. 7-15", "protocol": "The epitheliums of eyes in Group A were removed with a dull blade after the eyes were soaked in one of the solutions and irradiated pan-corneally on air with a top hat beam (3% root mean square) for 4 minutes with 365-nm light source (UV LED NCSU033B[T]; Nichia Co., Tokushima, Japan) at a chosen irradiance of 30 mW/cm^2 which was measured with a power sensor (model PD-300-UV; Ophir, Inc., Jerusalem, Israel) at the corneal surface. Corneal flaps (approximately 200 μm thick) were excised from the eyes with aid of an Intralase femtosecond laser (Abbot Medical Optics, Santa Ana, Calif.). The average thickness of the corneal flaps was calculated as a difference between the measurements before and after the excision from the eyes with an ultrasonic Pachymeter (DGH Technology, Exton, Pa.). The flaps were washed with distilled water and dried in a vacuum until the weight change became less than 10% (Rotary vane vacuum pump RV3 A652-01-903, BOC Edwards, West Sussex, UK). […] Papain digests were diluted 0.5 times with 1×BBBS and fluorescence of the solutions was measured with excitation of 360 nm in a QM-40 Spectrofluorometer (Photon Technology Int., London, Ontario, Canada). The fluorescence of the papain buffer was taken into account by measuring fluorescence in the absence of tissue and subtracting this value from the fluorescence of the samples. […]"}},
  "note": "“Also recorded” adds a separate entry of the source.",
  "data": [
    {"substance": "Polyoxyethylene (9) lauryl ether [Polidocanol]", "values": [
      {"measurement": "corrosive and damaging to the epithelium", "setting": "epithelium", "value": "less corrosive and damaging to the epithelium than BAC"},
      {"measurement": "enhancing permeability in the epithelium and generating cross-linking activity", "setting": "[1]", "value": "more effective than many other surfactants; also recorded: far more effective and efficient than BAC"}
    ]}
  ]
}
